How the values were obtained:
Fisher 344 rats [1] = assay: EEG in rats administered mango leaf extract and/or caffeine, Example 5; assay type: in vivo, rat; details: 0.50 mg/kg oral
Text: After automatic artefact rejection, signals were collected in sweeps of 4 s duration and Fast Fourier transformed using a Hanning window. […] Nine adult male Fisher 344 rats (5 months of age and day-night converted, weight about 350-400 g, were implanted with electrodes into the brain and were given two weeks for recovery from surgery. Three animals dropped the implant after performance of a placebo series. […] A crossover design with at least three days of drug holidays in between drug administrations was used. […] The animals were dosed orally at a constant volume of 1.0 ml/kg per kg body weight. The dosage administered to each animal was determined every day by the weight of that animal at the time of administration. Data were averaged from 5-9 animals, and are expressed as mean values±S.E.M.

[2] = tested on: pyramidal cells in hippocampus slices of rat brains; assay: Ex vivo population spikes in hippocampal slice preparation, Example 6
Protocol: Hippocampus slices of rat brains were tested. After daily administration of trial medication for one week, 4 animals were sacrificed under deep anesthesia and the hippocampus was removed and chopped by a vibrating razor blade to give 6 slices of about […] thickness per animal. Slices were taken one day after the last treatment. After adaptation to artificial cerebrospinal fluid for one hour, slices were transferred to an incubation chamber and superfused with cerebrospinal fluid at 35° C. Schaffer collaterals are branches extending from the axons of CA3 pyramidal cells in the hippocampus. Schaffer collaterals project to the CA1 area of the hippocampus, and are an integral part of memory formation. The Schaffer Collaterals were stimulated by single stimuli or theta burst stimuli, where theta burst stimuli are short bursts of stimulation at high frequencies, applied 5 times per second.

Fisher 344 rats [3] = assay: EEG (electropharmacogram) in freely moving rats, Example 1; assay type: in vivo, rat; details: oral gavage, 5-65 min after administration, FIG. 1
Protocol: Fisher 344 rats (11 months of age and day-night converted, weight about 350-400 g, provided by Charles River Laboratories, D-97633, Sulzfeld) were used in a series of experiments on the effects of various herbal and pharmaceutical products on central nervous system activity. Products were provided to the test subjects orally (gavage).
EEG signals were recorded by telemetry from 4 implanted electrodes in the frontal cortex, hippocampus and striatum of freely moving rats from inside a totally copper shielded room. Signals were collected in sweeps of 4 second duration and Fast Fourier transformed using a Hanning window. EEG signals were recorded over a period starting 5 minutes after administration of the test substances, and ending 65 minutes after administration of the test substances. Sampling frequency was 512 Hz. […] In an off-line procedure the spectra were averaged to give longer periods for further analysis and data presentation. Spectral activity within the frontal cortex, hippocampus, striatum and reticular formation was recorded.

Fisher 344 rats [4] = assay: EEG in freely moving rats, two recording periods, Example 2; assay type: in vivo, rat; details: oral, FIG. 2B/2C, period not separated
Protocol: Products were provided to the test subjects orally (gavage).
EEG signals were recorded by telemetry from 4 implanted electrodes in the frontal cortex, hippocampus and striatum of freely moving rats from inside a totally copper shielded room.

brain wave activity = assay: General statements on CNS activity, equivalence, onset and duration after ingestion; assay type: in vivo
acetylcholinesterase = acetylcholinesterase (Homo sapiens, UniProt P22303); details: cited from earlier work
acetylcholinesterase, sequence (P22303 32-614, species assumed): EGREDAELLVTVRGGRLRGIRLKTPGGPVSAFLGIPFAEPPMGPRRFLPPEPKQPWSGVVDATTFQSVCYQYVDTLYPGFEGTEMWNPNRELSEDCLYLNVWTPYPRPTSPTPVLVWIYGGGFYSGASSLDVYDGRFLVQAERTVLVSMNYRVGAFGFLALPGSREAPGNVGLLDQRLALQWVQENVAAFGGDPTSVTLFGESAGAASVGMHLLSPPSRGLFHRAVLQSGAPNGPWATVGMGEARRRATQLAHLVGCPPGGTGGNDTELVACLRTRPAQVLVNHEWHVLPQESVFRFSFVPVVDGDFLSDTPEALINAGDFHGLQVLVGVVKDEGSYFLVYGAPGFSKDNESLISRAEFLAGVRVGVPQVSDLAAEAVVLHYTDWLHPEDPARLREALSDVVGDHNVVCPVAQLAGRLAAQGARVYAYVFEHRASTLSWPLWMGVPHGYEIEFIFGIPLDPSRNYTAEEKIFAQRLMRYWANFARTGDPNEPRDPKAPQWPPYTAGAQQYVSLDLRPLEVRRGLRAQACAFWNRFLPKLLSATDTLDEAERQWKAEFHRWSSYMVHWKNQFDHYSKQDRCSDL

MAOA = biological target: T1, MAOA (Homo sapiens, UniProt P21397); details: said to underlie anti-depressant-like effect; cited from earlier work
T1 sequence (P21397 1-527): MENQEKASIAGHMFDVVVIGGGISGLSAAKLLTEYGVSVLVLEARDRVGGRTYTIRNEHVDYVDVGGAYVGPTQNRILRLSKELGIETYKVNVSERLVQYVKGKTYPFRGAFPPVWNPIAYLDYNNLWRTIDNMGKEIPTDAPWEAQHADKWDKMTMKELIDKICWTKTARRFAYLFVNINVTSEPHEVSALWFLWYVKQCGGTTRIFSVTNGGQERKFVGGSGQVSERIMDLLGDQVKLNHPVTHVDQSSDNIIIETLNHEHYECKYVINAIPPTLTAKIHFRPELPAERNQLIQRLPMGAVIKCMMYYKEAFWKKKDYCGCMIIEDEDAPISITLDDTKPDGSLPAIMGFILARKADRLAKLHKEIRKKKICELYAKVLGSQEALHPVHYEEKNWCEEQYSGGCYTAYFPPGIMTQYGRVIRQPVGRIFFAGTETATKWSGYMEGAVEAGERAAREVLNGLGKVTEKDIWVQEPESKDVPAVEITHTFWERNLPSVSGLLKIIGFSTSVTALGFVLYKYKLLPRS

| Structure (SMILES) | delta waves in the striatum (Fisher 344 rats [1]; FIG. 6) | delta, theta and beta power in the hippocampus (Fisher 344 rats [1]; FIG. 6) | delta power in the frontal cortex (Fisher 344 rats [1]; FIG. 6, p<0.1) | delta power in the frontal cortex and reticular formation (Fisher 344 rats [1]; from the second hour after administration on) | alpha2 power (Fisher 344 rats [1]; last hour, p<0.05 in the reticular formation) | Amplitude (population spike), Single Stimulation ([2]; SS, slices after one week daily dosing, caffeine 0.5 mg/kg, mango leaf extract 25 mg/kg) | Amplitude (population spike), Theta Burst Stimulation ([2]; TBS, slices after one week daily dosing, caffeine 0.5 mg/kg, mango leaf extract 25 mg/kg) | pyramidal cell activity ([2]; Table 1 and FIG. 11) | CNS profile (EEG) compared with reference substances (Fisher 344 rats [3]) | gamma wave activity in the striatum (Fisher 344 rats [4]) | caffeine-type side-effects (nausea, fast or irregular pulse, irritability, loss of concentration) (brain wave activity; even at high servings or doses) | dose dependence of CNS stimulation beyond a threshold (brain wave activity; in vivo) | calming activity when ingested (brain wave activity; unlike caffeine) | acetylcholinesterase inhibition (acetylcholinesterase) | MAOA inhibition (MAOA) |
| --- | --- | --- | --- | --- | --- | --- | --- | --- | --- | --- | --- | --- | --- | --- | --- |
| Cn1c(=O)c2c(ncn2C)n(C)c1=O [Caffeine] | minor but statistically conspicuous decrease | statistically significant attenuation | statistically conspicuous attenuation | statistically significant increases of delta power | increases of alpha2 power were observed except for the striatum | 1.3 (SS) mv | 3.1 (TBS) mv | significantly smaller effect on such activity than mango leaf extract | – | – | – | – | – | – | – |
| O=c1c2cc(O)c(O)cc2oc2cc(O)c([C@@H]3O[C@H](CO)[C@@H](O)[C@H](O)[C@H]3O)c(O)c12 [Mangiferin] | – | – | – | – | – | – | – | – | surprisingly similar to the CNS profiles of reference caffeine, citicolin and Guarana | not observed | none of the well-known side-effects | plateau effect | calming, de-stressing activity | acetylcholinesterase inhibiting activity | inhibition of MAOA |
